In ChEMBL document CHEMBL1201862, “PubChem BioAssay data set” (2004):
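Each compound was tested at five concentrations against cells in 96-well plates for 48 hours. GI50 is the concentration that inhibits growth by half.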 Calls of active or inactive are those of the source. Cut-off read from the data, not from the text of the source: active = GI50 up to about 1.1 µM and inactive = higher.

Legend:
Assay in all cases: NCI-60 cell line screen, 48 h
UACC-257 = test system: UACC-257
SK-MEL-5 = test system: SK-MEL-5
EKVX = test system: EKVX
SK-OV-3 = test system: SK-OV-3
HCC 2998 = test system: HCC 2998
HT-29 = test system: HT-29
SF-539 = test system: SF-539
DMS-273 = test system: DMS-273
TK-10 = test system: TK-10
RPMI-8226 = test system: RPMI-8226
Malme-3M = test system: Malme-3M
NCI-H522 = test system: NCI-H522
U-251 = test system: U-251
CCRF-CEM = test system: CCRF-CEM
RXF 631 = test system: RXF 631
SK-MEL-28 = test system: SK-MEL-28
HL-60 = test system: HL-60
SF-268 = test system: SF-268
DLD-1 = test system: DLD-1
KM-20L2 = test system: KM-20L2
OVCAR-3 = test system: OVCAR-3
COLO 205 = test system: COLO 205
786-0 = test system: 786-0
CAKI-1 = test system: CAKI-1
NCI-H23 = test system: NCI-H23
M19-MEL = test system: M19-MEL
HCT-116 = test system: HCT-116
OVCAR-4 = test system: OVCAR-4
DMS-114 = test system: DMS-114
NCI-H226 = test system: NCI-H226
K562 = test system: K562
SNB-75 = test system: SNB-75
LOX IMVI = test system: LOX IMVI
ACHN = test system: ACHN
NCI-H460 = test system: NCI-H460
M14 = test system: M14
SK-MEL-2 = test system: SK-MEL-2
LXFL 529 = test system: LXFL 529
HCT-15 = test system: HCT-15
KM12 = test system: KM12
IGROV-1 = test system: IGROV-1
SW-620 = test system: SW-620
HOP-92 = test system: HOP-92
SF-295 = test system: SF-295
OVCAR-8 = test system: OVCAR-8
A498 = test system: A498
A549 = test system: A549
HOP-18 = test system: HOP-18
OVCAR-5 = test system: OVCAR-5
UACC-62 = test system: UACC-62
SNB-78 = test system: SNB-78
HOP-62 = test system: HOP-62
RXF 393 = test system: RXF 393
UO-31 = test system: UO-31
MOLT-4 = test system: MOLT-4
SNB-19 = test system: SNB-19
SN12C = test system: SN12C
SR = test system: SR
XF498 = test system: XF498

With `COc1cc2c(c(C)c1O)[C@H]1COc3ccccc3[C@H]1O2` the GI50 (UACC-257) was 12.4 µM (inactive), the GI50 (SK-MEL-5) was 10.8 µM (inactive) and the GI50 (EKVX) was 12.2 µM (inactive). The GI50 (SK-OV-3) was 31.8 µM (inactive), the GI50 (HCC 2998) was > 10 µM (inactive) and the GI50 (HT-29) was 17.7 µM (inactive). The GI50 (SF-539) was 8.41 µM (inactive), the GI50 (DMS-273) was 5.81 µM (inactive) and the GI50 (TK-10) was 31.5 µM (inactive). The GI50 (RPMI-8226) was 13.8 µM (inactive), the GI50 (Malme-3M) was 22.1 µM (inactive) and the GI50 (NCI-H522) was 3.27 µM (inactive). The GI50 (U-251) was > 10 µM (inactive), the GI50 (CCRF-CEM) was 13.6 µM (inactive) and the GI50 (RXF 631) was 11.6 µM (inactive). The GI50 (SK-MEL-28) was 12.6 µM (inactive), the GI50 (HL-60) was 2.94 µM (inactive) and the GI50 (SF-268) was 15.2 µM (inactive). The GI50 (DLD-1) was 24.4 µM (inactive), the GI50 (KM-20L2) was 18.2 µM (inactive) and the GI50 (OVCAR-3) was 21.9 µM (inactive). The GI50 (COLO 205) was 18.7 µM (inactive), the GI50 (786-0) was 16.6 µM (inactive) and the GI50 (CAKI-1) was 9.04 µM (inactive). For the same compound, the GI50 (NCI-H23) was 13.2 µM (inactive), the GI50 (M19-MEL) was 12.5 µM (inactive) and the GI50 (HCT-116) was 5.71 µM (inactive). For the same compound, the GI50 (OVCAR-4) was 17.5 µM (inactive), the GI50 (DMS-114) was 5.12 µM (inactive) and the GI50 (NCI-H226) was 6.25 µM (inactive). The GI50 (K562) was 4.29 µM (inactive), the GI50 (SNB-75) was 3.95 µM (inactive) and the GI50 (LOX IMVI) was 3.65 µM (inactive). For the same compound, the GI50 (ACHN) was 21.2 µM (inactive), the GI50 (NCI-H460) was 11.3 µM (inactive) and the GI50 (M14) was 8.15 µM (inactive). For the same compound, the GI50 (SK-MEL-2) was 3.16 µM (inactive), the GI50 (LXFL 529) was 14.6 µM (inactive) and the GI50 (HCT-15) was 4.27 µM. For the same compound, the GI50 (KM12) was 24.7 µM (inactive), the GI50 (IGROV-1) was 14.5 µM (inactive) and the GI50 (SW-620) was 5.27 µM (inactive). The GI50 (HOP-92) was 19.5 µM (inactive), the GI50 (SF-295) was 27 µM (inactive) and the GI50 (OVCAR-8) was 20.9 µM (inactive). For the same compound, the GI50 (A498) was 24.9 µM (inactive), the GI50 (A549) was 13.2 µM (inactive) and the GI50 (HOP-18) was 1.37 µM (inactive). The GI50 (OVCAR-5) was 55.3 µM (inactive), the GI50 (UACC-62) was 7.89 µM (inactive) and the GI50 (SNB-78) was 23.4 µM (inactive). The GI50 (HOP-62) was 6.59 µM (inactive), the GI50 (RXF 393) was 9.06 µM (inactive) and the GI50 (UO-31) was 8.51 µM (inactive). The GI50 (MOLT-4) was 14.7 µM (inactive) and the GI50 (SNB-19) was 1.49 µM (inactive).
With `Cc1c(C)c2cc3c(=O)ccoc3c(C)c2oc1=O` the GI50 (UACC-257) was > 100 µM (inactive), the GI50 (SK-MEL-5) was > 100 µM (inactive) and the GI50 (EKVX) was > 100 µM (inactive). For the same compound, the GI50 (SK-OV-3) was 57.1 µM (inactive), the GI50 (HCC 2998) was > 100 µM (inactive) and the GI50 (SF-539) was 85.5 µM (inactive). For the same compound, the GI50 (TK-10) was > 100 µM (inactive), the GI50 (RPMI-8226) was > 100 µM (inactive) and the GI50 (Malme-3M) was > 100 µM (inactive). The GI50 (NCI-H522) was 69.8 µM (inactive), the GI50 (U-251) was > 100 µM (inactive) and the GI50 (CCRF-CEM) was 44 µM (inactive). The GI50 (RXF 631) was 83 µM (inactive), the GI50 (SK-MEL-28) was > 100 µM (inactive) and the GI50 (HL-60) was 50.2 µM (inactive). The GI50 (SF-268) was 71.3 µM (inactive), the GI50 (KM-20L2) was > 100 µM (inactive) and the GI50 (OVCAR-3) was > 100 µM (inactive). For the same compound, the GI50 (COLO 205) was 47 µM (inactive), the GI50 (786-0) was > 100 µM (inactive) and the GI50 (NCI-H23) was > 100 µM (inactive). The GI50 (M19-MEL) was 70.6 µM (inactive), the GI50 (DMS-114) was 48.3 µM (inactive) and the GI50 (NCI-H226) was 29.8 µM (inactive). For the same compound, the GI50 (K562) was > 100 µM (inactive), the GI50 (SNB-75) was 15 µM (inactive) and the GI50 (LOX IMVI) was 54 µM (inactive). For the same compound, the GI50 (ACHN) was > 100 µM (inactive), the GI50 (NCI-H460) was > 100 µM (inactive) and the GI50 (M14) was > 100 µM (inactive). The GI50 (SK-MEL-2) was > 100 µM (inactive), the GI50 (LXFL 529) was 80.4 µM (inactive) and the GI50 (HCT-15) was greater than 100 µM. The GI50 (KM12) was > 100 µM (inactive), the GI50 (IGROV-1) was 39.8 µM (inactive) and the GI50 (SW-620) was > 100 µM (inactive). For the same compound, the GI50 (SF-295) was > 100 µM (inactive), the GI50 (OVCAR-8) was > 100 µM (inactive) and the GI50 (A498) was > 100 µM (inactive). The GI50 (A549) was > 100 µM (inactive), the GI50 (HOP-18) was 41.6 µM (inactive) and the GI50 (OVCAR-5) was > 100 µM (inactive). For the same compound, the GI50 (UACC-62) was 21.9 µM (inactive), the GI50 (SNB-78) was > 100 µM (inactive) and the GI50 (SN12C) was 56.6 µM (inactive). The GI50 (HOP-62) was > 100 µM (inactive), the GI50 (RXF 393) was 25 µM (inactive) and the GI50 (UO-31) was 24.4 µM (inactive). The GI50 (MOLT-4) was 20.9 µM (inactive) and the GI50 (SNB-19) was 48.6 µM (inactive).
In the case of `CCCCCCc1cc(C(=O)Nc2ccc(Cl)cc2)nc(S)n1`, the GI50 (UACC-257) was > 100 µM (inactive), the GI50 (SK-MEL-5) was > 100 µM (inactive) and the GI50 (EKVX) was > 100 µM (inactive). The GI50 (SK-OV-3) was > 100 µM (inactive), the GI50 (SF-539) was > 100 µM (inactive) and the GI50 (SR) was > 100 µM (inactive). The GI50 (RPMI-8226) was > 100 µM (inactive), the GI50 (NCI-H522) was > 100 µM (inactive) and the GI50 (U-251) was > 100 µM (inactive). For the same compound, the GI50 (CCRF-CEM) was > 100 µM (inactive), the GI50 (RXF 631) was > 100 µM (inactive) and the GI50 (HL-60) was > 100 µM (inactive). For the same compound, the GI50 (DLD-1) was > 10 µM (inactive), the GI50 (CAKI-1) was > 100 µM (inactive) and the GI50 (NCI-H23) was > 100 µM (inactive). For the same compound, the GI50 (OVCAR-4) was > 100 µM (inactive), the GI50 (NCI-H226) was > 10 µM (inactive) and the GI50 (K562) was > 100 µM (inactive). For the same compound, the GI50 (NCI-H460) was > 10 µM (inactive), the GI50 (M14) was > 100 µM (inactive) and the GI50 (SK-MEL-2) was > 100 µM (inactive). The GI50 (LXFL 529) was > 100 µM (inactive), the GI50 (KM12) was > 100 µM (inactive) and the GI50 (IGROV-1) was > 100 µM (inactive). The GI50 (SW-620) was > 100 µM (inactive), the GI50 (HOP-92) was > 100 µM (inactive) and the GI50 (A549) was > 100 µM (inactive). The GI50 (OVCAR-5) was 31.1 µM (inactive), the GI50 (XF498) was > 10 µM (inactive) and the GI50 (SN12C) was > 100 µM (inactive). For the same compound, the GI50 (HOP-62) was > 100 µM (inactive), the GI50 (RXF 393) was > 10 µM (inactive) and the GI50 (UO-31) was > 100 µM (inactive). The GI50 (MOLT-4) was > 100 µM (inactive).
